Values quoted from earlier work, collected in patent US12364687B2 (BIOHAVEN PHARMACEUTICAL HOLDING COMPANY LTD., priority 2018, dated 2025).

Conditions: taken with meals

SMILES: Nc1nc2ccc(OC(F)(F)F)cc2s1 [riluzole, 6-(trifluoromethoxy)benzothiazol-2-amine]
- food effect on exposure: reduced exposure when taken with meals
